One test concerns P. falciparum strain D6. The test is described as follows: [3H]-hypoxanthine growth inhibition assay, P. falciparum D6. Conditions: Plasmodium falciparum. Type of test: cell-based. How it is done:
(§1) The potential for antimalarial activity against Plasmodium falciparum was determined by measuring the incorporation of tritiated hypoxanthine into parasitized red blood cells.
(§2) Stock solutions of the test compounds and the reference drug chloroquine (CQ) (Sigma Chemicals C-6628, Lot #059H0919) were prepared in silanized glass vials with AquaSil™ (Pierce, USA) to minimize absorption of the compounds to glassware. All test compounds were dissolved in DMSO (Sigma Cat No. #D8418) to 1 mM concentration, whereas CQ was dissolved in 50% methanol at a concentration of 1.6 mg/ml (base). Stock solutions were stored at −20° C.
(§3) The P. falciparum laboratory adapted strains utilized in this project (Table 1) were in vitro cultured and routinely maintained in RPMI-1640-LPLF complete medium, which contained low concentrations of para-amino benzoic acid (0.0005 mg/L) and folic acid (0.01 mg/L).
(§4) The low concentration of folic acid in RPMI-1640-LPLF prevents inhibition of the compound if its activity targets the parasite's folate metabolic pathway. Parasites were cultured in human red blood cells (RBCs) in vitro at 37° C. in special gas mixture (5% O2, 5% CO2 and 90% N2) as described Trager and Jensen (1979 Science 193:673-675).
(§5) Base cultivation medium consisted of 10.4 g/L RPMI-1640-LPLF powder (Gibco BRL), 5.97 g/L HEPES buffer (MP Biomedicals, USA), 2.0 g/L D-glucose (BDH chemicals, Australia), 0.05 g/L hypoxanthine (Sigma, USA) and 40 mg/L gentamycin (Pfizer, Australia). The pH of the medium was adjusted to 6.9 and the solution was filtered using 0.2 μm pore size (AcroCap, Gelman Science, USA). Complete medium was prepared by adding sodium bicarbonate solution (final concentration, 0.21%) and drug-free heat-inactivated human plasma, pooled from various blood types, obtained from the Australian Red Cross Blood Service (Brisbane) (final concentration, 10%) to the base RPMI-1640-LPLF. For [^3H]-hypoxanthine inhibition growth assay, RPMI-1640-LPLF complete medium which lacked [^3H]-hypoxanthine ([^3H]-RPMI-1640-LPLF) was used to prevent uptake of hypoxanthine by parasites, as radioactive hypoxanthine uptake is measured as a surrogate marker of growth. All complete medium was used within three days of preparation. See DE (Para) SOP 002 for methodology.
(§6) Red blood cells (RBC) were required for P. falciparum parasites to proliferate in vitro. 0 (Rh+) type blood was obtained from the Australian Red Cross Blood Service. The RBC were washed twice in phosphate-buffered saline (PBS) and once in [^3H]-RPMI-1640-LPLF complete medium by centrifugation at 1,500×g for 5 min. Following the final wash, the haematocrit was measured as the percent of RBC to total culture volume. The haematocrit was adjusted to 50% by removing or adding [^3H]-RPMI-LPLF complete medium. See DE (Para) SOP 003 for methodology.
(§7) All P. falciparum strains were grown in RPMI-1640-LPLF complete medium at 4% haematocrit and 1% to 8% parasitaemia at 37° C. in sealed flasks in a gas mixture of 5% O2, 5% CO2 and 90% N2 (BOC Gases, Brisbane, Australia). For drug susceptibility assays cultures were routinely synchronized when the majority of parasites (>85%) were at early trophozoite (ring) stage. Synchronization involved removing the more mature erythrocytic parasite stages by lysis, resulting in the retention only of early trophozoite (ring) stages. Synchronization was performed by re-suspending the infected red blood cell (iRBC) pellet in 5 to 10 times its volume of 5% D-sorbitol (Bacto Laboratories Pty. Ltd., Australia) for 5 min (Lambros and Vanderberg, 1979 J Parasitol 65: 418-420). The mixture was centrifuged (1,500 rpm for 5 min) and the supernatant removed. The iRBC were washed twice using PBS buffer and once using [^3H]-RPMI-LPLF plain medium. Following synchronization, a new culture was prepared with an initial parasitaemia of 1% in RPMI-LPLF complete medium. See DE (Para) SOP 008 for methodology.

The next test concerns P. falciparum strain W2. The test is described as follows: [3H]-hypoxanthine growth inhibition assay, P. falciparum W2. Conditions: Plasmodium falciparum. Type of test: cell-based. How it is done:
as §1, §2, §3, §4, §5, §6, §7

[1] abbreviates: P. falciparum D6 (sensitive to chloroquine and pyrimethamine), [3H]-hypoxanthine incorporation, read-out: D6 IC50.
Where [2] appears, read: P. falciparum W2 (resistant to chloroquine and pyrimethamine), [3H]-hypoxanthine incorporation, read-out: W2 IC50.

Counter-ions that a name gives are not always drawn. Like-named read-outs stand apart in the source and are kept apart here.

The record followed here is patent publication US9409893B2, “Heteroaryl derivatives and uses thereof” (Jacobus Pharmaceutical Company, Inc., priority 2012, dated 2016).

As for `CC(C)(C)NCc1cc(C(C)(C)C)cc(-c2cc(C(F)(F)F)ccn2)c1O` [Example 28, 4-(tert-Butyl)-2-((tert-butylamino)methyl)-6-(4-(trifluoromethyl)pyridin-2-yl)phenol hydrochloride], the IC50 with P. falciparum strain D6 (setting [1]) is 357 nM; in the test with P. falciparum strain W2 (setting [2]), 111 nM.

For `CC(C)(C)NCc1cc(C(C)(C)C)cc(-c2cccc(C(F)(F)F)n2)c1O` [Example 29, 4-(tert-Butyl)-2-((tert-butylamino)methyl)-6-(6-(trifluoromethyl)pyridin-2-yl)phenol hydrochloride], the results for the IC50 with P. falciparum strain D6 (setting [1]) and with P. falciparum strain W2 (setting [2]) were 192 nM and 68 nM, respectively.

In the case of `Cc1ccc(-c2cc(C(C)(C)C)cc(CNC(C)(C)C)c2O)cn1` [Example 30, 4-(tert-Butyl)-2-((tert-butylamino)methyl)-6-(6-methylpyridin-3-yl)phenol dihydrochloride], the IC50 with P. falciparum strain D6 (D6, read-out: D6 IC50) was found to be 67 nM; in the test with P. falciparum strain W2 (W2, read-out: W2 IC50), 42 nM.

`CC(C)(C)NCc1cc(C(C)(C)C)cc(-c2ncccc2C(F)(F)F)c1O` [Example 31, 4-(tert-Butyl)-2-((tert-butylamino)methyl)-6-(3-(trifluoromethyl)pyridin-2-yl)phenol 1.7hydrochloride]: the IC50 was 5480 nM in the test with P. falciparum strain D6 (setting [1]) and 2270 nM in the test on P. falciparum strain W2 (setting [2]).

As to `CC(C)(C)NCc1cc(C(C)(C)C)cc(-c2cnc(C(F)(F)F)cn2)c1O` [Example 32, 4-(tert-Butyl)-2-((tert-butylamino)methyl)-6-(5-(trifluoromethyl)pyrazin-2-yl)phenol hydrochloride], the IC50 with P. falciparum strain D6 (setting [1]) was determined as 38 nM; in the test with P. falciparum strain W2 (setting [2]), 11 nM.

In the case of `CC(C)(C)NCc1cc(C(C)(C)C)cc(-c2ccncc2C(F)(F)F)c1O` [Example 35, 4-(tert-Butyl)-2-((tert-butylamino)methyl)-6-(3-(trifluoromethyl)pyridin-4-yl)phenol dihydrochloride], the IC50 is 549 nM in the test on P. falciparum strain D6 (D6, read-out: D6 IC50) and 144 nM with P. falciparum strain W2 (W2, read-out: W2 IC50).

On to `CC(C)(C)NCc1cc(C(C)(C)C)cc(-c2cnccc2C(F)(F)F)c1O` [Example 36, 4-(tert-Butyl)-2-((tert-butylamino)methyl)-6-(4-(trifluoromethyl)pyridin-3-yl)phenol 1.9hydrochloride], for which the IC50 stood at 779 nM with P. falciparum strain D6 (setting [1]) and 401 nM with P. falciparum strain W2 (setting [2]).

`CC(C)(C)NCc1cc(-c2cccnc2)cc(-c2cccnc2)c1O` [Example 37, 2-((tert-Butylamino)methyl)-4,6-di(pyridin-3-yl)phenol]: the IC50 in the test with P. falciparum strain D6 (setting [1]) and in the test on P. falciparum strain W2 (setting [2]) was 5000 nM throughout.

As for `CC(C)(C)NCc1cc(-c2ccc(C(F)(F)F)nc2)cc(-c2ccc(C(F)(F)F)nc2)c1O` [Example 38, 2-((tert-Butylamino)methyl)-4,6-bis(6-(trifluoromethyl)pyridin-3-yl)phenol], the values for the IC50 in the test on P. falciparum strain D6 (setting [1]) and in the test on P. falciparum strain W2 (setting [2]) were 7000 nM and 5000 nM, respectively.

Regarding `CC(C)(C)NCc1cc(-c2ccc(Cl)c(C(F)(F)F)c2)cc(-c2ccc(C(F)(F)F)nc2)c1O` [Example 39, 3-((tert-Butylamino)methyl)-4′-chloro-3′-(trifluoromethyl)-5-(6-(trifluoromethyl)pyridin-3-yl)-[1,1′-biphenyl]-4-ol hydrochloride], the IC50 is 73 nM in the test with P. falciparum strain D6 (setting [1]) and 42 nM in the test with P. falciparum strain W2 (setting [2]).

Regarding `CC(C)(C)NCc1cc(C(C)(C)C)cc(-c2ccc(C(F)(F)F)cn2)c1O` [Example 40, 4-(tert-Butyl)-2-((tert-butylamino)methyl)-6-(5-(trifluoromethyl)pyridin-2-yl)phenol], the values for the IC50 with P. falciparum strain D6 (setting [1]) and in the test with P. falciparum strain W2 (setting [2]) were 231 nM and 79 nM, respectively.

Take `CN(Cc1cc(C(C)(C)C)cc(-c2ccc(C(F)(F)F)nc2)c1O)C(C)(C)C` [Example 45, 4-(tert-Butyl)-2-((tert-butyl(methyl)amino)methyl)-6-(6-(trifluoromethyl)pyridin-3-yl)phenol hydrochloride]: the results for the IC50 in the test with P. falciparum strain D6 (setting [1]) and with P. falciparum strain W2 (setting [2]) were 275 nM and 106 nM, respectively.

As for `CC(C)(C)NCc1cc(C(C)(C)C)cc(-c2nccc(C(F)(F)F)n2)c1O` [Example 46, 4-(tert-Butyl)-2-((tert-butylamino)methyl)-6-(4-(trifluoromethyl)pyrimidin-2-yl)phenol hydrochloride], the IC50 in the test on P. falciparum strain D6 (setting [1]) was determined as 2100 nM; in the test with P. falciparum strain W2 (setting [2]) it was 1970 nM.

Take `CCN(CC)Cc1cc(C(C)(C)C)cc(-c2ccc(C(F)(F)F)nc2)c1O` [Example 47, 4-(tert-Butyl)-2-((diethylamino)methyl)-6-(6-(trifluoromethyl)pyridin-3-yl)phenol hydrochloride]: the IC50 in the test with P. falciparum strain D6 (setting [1]) worked out at 43 nM; with P. falciparum strain W2 (setting [2]), 31 nM.

In the case of `CC(C)NCc1cc(C(C)(C)C)cc(-c2ccc(C(F)(F)F)nc2)c1O` [Example 48, 4-(tert-Butyl)-2-((isopropylamino)methyl)-6-(6-(trifluoromethyl)pyridin-3-yl)phenol hydrochloride], the IC50 in the test with P. falciparum strain D6 (setting [1]) and in the test on P. falciparum strain W2 (setting [2]) was 5 nM in each case.

With `CC(C)(C)c1cc(CN2CCOCC2)c(O)c(-c2ccc(C(F)(F)F)nc2)c1` [Example 49, 4-(tert-Butyl)-2-(morpholinomethyl)-6-(6-(trifluoromethyl)pyridin-3-yl)phenol hydrochloride], the values for the IC50 in the test with P. falciparum strain D6 (setting [1]) and with P. falciparum strain W2 (setting [2]) were 244 nM and 214 nM, respectively.

In the case of `CN1CCN(Cc2cc(C(C)(C)C)cc(-c3ccc(C(F)(F)F)nc3)c2O)CC1` [Example 50, 4-(tert-Butyl)-2-((4-methylpiperazin-1-yl)methyl)-6-(6-(trifluoromethyl)pyridin-3-yl)phenol dihydrochloride], the IC50 was determined as 297 nM with P. falciparum strain D6 (D6, read-out: D6 IC50) and 160 nM in the test on P. falciparum strain W2 (W2, read-out: W2 IC50).

Regarding `CC(C)(C)c1cc(CN2CCCCC2)c(O)c(-c2ccc(C(F)(F)F)nc2)c1` [Example 51, 4-(tert-Butyl)-2-(piperidin-1-ylmethyl)-6-(6-(trifluoromethyl)pyridin-3-yl)phenol hydrochloride], the IC50 was determined as 46 nM in the test on P. falciparum strain D6 (setting [1]) and 24 nM in the test with P. falciparum strain W2 (setting [2]).

Turning to `CC(C)(C)c1cc(CN2CCCC2)c(O)c(-c2ccc(C(F)(F)F)nc2)c1` [Example 52, 4-(tert-Butyl)-2-(pyrrolidin-1-ylmethyl)-6-(6-(trifluoromethyl)pyridin-3-yl)phenol hydrochloride], the IC50 was 23 nM with P. falciparum strain D6 (setting [1]) and 14 nM in the test on P. falciparum strain W2 (setting [2]).

On to `CC(=O)N1CCN(Cc2cc(C(C)(C)C)cc(-c3ccc(C(F)(F)F)nc3)c2O)CC1` [Example 53, 1-(4-(5-(tert-Butyl)-2-hydroxy-3-(6-(trifluoromethyl)pyridin-3-yl)benzyl)piperazin-1-yl)ethanone hydrochloride], for which the figures for the IC50 in the test on P. falciparum strain D6 (setting [1]) and in the test on P. falciparum strain W2 (setting [2]) were 3660 nM and 2290 nM, respectively.

For `CC(C)(C)NCc1cc(C(C)(C)C)cc(-c2ncc(C(F)(F)F)cn2)c1O` [Example 54, 4-(tert-Butyl)-2-((tert-butylamino)methyl)-6-(5-(trifluoromethyl)pyrimidin-2-yl)phenol hydrochloride], the figures for the IC50 in the test with P. falciparum strain D6 (setting [1]) and with P. falciparum strain W2 (setting [2]) were 6320 nM and 6120 nM, respectively.

Take `CC(C)(C)NCc1cc(-c2ccc(S(C)(=O)=O)cc2)cc(-c2ccc(C(F)(F)F)nc2)c1O` [Example 55, 3-((tert-Butylamino)methyl)-4′-(methylsulfonyl)-5-(6-(trifluoromethyl)pyridin-3-yl)-[1,1′-biphenyl]-4-ol hydrochloride]: the figures for the IC50 with P. falciparum strain D6 (setting [1]) and in the test with P. falciparum strain W2 (setting [2]) were 2500 nM and 4000 nM, respectively.
